PubChem BioAssay (NCI)
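The compound was tested at five concentrations on cells cultured in 96-well plates, with a 48-hour exposure period. GI50 marks 50% less growth. TGI: concentration producing complete growth inhibition.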

Assays:
Assay in all cases: DTP human tumour cell line panel, 48 h
MOLT-4 leukemia = system: MOLT-4 leukemia
KM12 colon = system: KM12 colon
EKVX NSCLC = system: EKVX NSCLC
SF-268 CNS = system: SF-268 CNS
A549 NSCLC = system: A549 NSCLC
PC-3 prostate = system: PC-3 prostate
HL-60(TB) leukemia = system: HL-60(TB) leukemia
UACC-62 melanoma = system: UACC-62 melanoma
TK-10 renal = system: TK-10 renal
HCT-116 colon = system: HCT-116 colon
CAKI-1 renal = system: CAKI-1 renal
OVCAR-4 ovarian = system: OVCAR-4 ovarian
SNB-75 CNS = system: SNB-75 CNS
OVCAR-3 ovarian = system: OVCAR-3 ovarian
SF-295 CNS = system: SF-295 CNS
786-0 renal = system: 786-0 renal
OVCAR-8 ovarian = system: OVCAR-8 ovarian
ACHN renal = system: ACHN renal
M14 melanoma = system: M14 melanoma
NCI-H23 lung = system: NCI-H23 lung
HOP-62 NSCLC = system: HOP-62 NSCLC
DU-145 prostate = system: DU-145 prostate
CCRF-CEM leukemia = system: CCRF-CEM leukemia
SK-MEL-2 melanoma = system: SK-MEL-2 melanoma
SW-620 colon = system: SW-620 colon
T-47D breast = system: T-47D breast
HS 578T breast = system: HS 578T breast
MALME-3M melanoma = system: MALME-3M melanoma
NCI-H460 lung = system: NCI-H460 lung
SK-MEL-5 melanoma = system: SK-MEL-5 melanoma
U251 CNS = system: U251 CNS
HCC-2998 colon = system: HCC-2998 colon
MDA-MB-231 breast = system: MDA-MB-231 breast
UO-31 renal = system: UO-31 renal
UACC-257 melanoma = system: UACC-257 melanoma
SK-OV-3 ovarian = system: SK-OV-3 ovarian
SNB-19 CNS = system: SNB-19 CNS
SK-MEL-28 melanoma = system: SK-MEL-28 melanoma
SR leukemia = system: SR leukemia
HT29 colon = system: HT29 colon
RPMI-8226 leukemia = system: RPMI-8226 leukemia
OVCAR-5 ovarian = system: OVCAR-5 ovarian
HOP-92 NSCLC = system: HOP-92 NSCLC
A498 renal = system: A498 renal
IGROV1 ovarian = system: IGROV1 ovarian
MDA-MB-468 breast = system: MDA-MB-468 breast
RXF 393 renal = system: RXF 393 renal
K-562 leukemia = system: K-562 leukemia
SF-539 CNS = system: SF-539 CNS
MCF7 breast = system: MCF7 breast
MDA-MB-435 = system: MDA-MB-435
LOX IMVI melanoma = system: LOX IMVI melanoma
SN12C renal = system: SN12C renal
COLO 205 colon = system: COLO 205 colon
HCT-15 colon = system: HCT-15 colon
NCI-H522 lung = system: NCI-H522 lung
NCI-H226 lung = system: NCI-H226 lung

CN1CCCN(Cc2ccc(C(=O)Nc3cccc(Nc4ccc5cc(O)ccc5n4)c3)cc2C(F)(F)F)CC1
GI50 (MOLT-4 leukemia): 2050 nM | TGI (MOLT-4 leukemia): 14.5 µM | GI50 (KM12 colon): 14.1 µM | TGI (KM12 colon): 28.1 µM | GI50 (EKVX NSCLC): 16 µM | TGI (EKVX NSCLC): 31.3 µM | GI50 (SF-268 CNS): 17.3 µM | TGI (SF-268 CNS): 36.1 µM | GI50 (A549 NSCLC): 16.2 µM | TGI (A549 NSCLC): 33.1 µM | GI50 (PC-3 prostate): 13.1 µM | TGI (PC-3 prostate): 28.5 µM | GI50 (HL-60(TB) leukemia): 11.9 µM | TGI (HL-60(TB) leukemia): 31.8 µM | GI50 (UACC-62 melanoma): 15.9 µM | TGI (UACC-62 melanoma): 30 µM | GI50 (TK-10 renal): 18.5 µM | TGI (TK-10 renal): 32.8 µM | GI50 (HCT-116 colon): 6.51 µM | TGI (HCT-116 colon): 22.1 µM | GI50 (CAKI-1 renal): 14.1 µM | TGI (CAKI-1 renal): 27.8 µM | GI50 (OVCAR-4 ovarian): 15 µM | TGI (OVCAR-4 ovarian): 30 µM | GI50 (SNB-75 CNS): 1170 nM | TGI (SNB-75 CNS): 16.7 µM | GI50 (OVCAR-3 ovarian): 16.3 µM | TGI (OVCAR-3 ovarian): 29.9 µM | GI50 (SF-295 CNS): 17.3 µM | TGI (SF-295 CNS): 33.4 µM | GI50 (786-0 renal): 16 µM | TGI (786-0 renal): 30.1 µM | GI50 (OVCAR-8 ovarian): 18.9 µM | TGI (OVCAR-8 ovarian): 37.2 µM | GI50 (ACHN renal): 19.7 µM | TGI (ACHN renal): 38.4 µM | GI50 (M14 melanoma): 12.7 µM | TGI (M14 melanoma): 27.8 µM | GI50 (NCI-H23 lung): 16.8 µM | TGI (NCI-H23 lung): 32.1 µM | GI50 (HOP-62 NSCLC): 17.8 µM | TGI (HOP-62 NSCLC): 31.8 µM | GI50 (DU-145 prostate): 16.9 µM | TGI (DU-145 prostate): 30.6 µM | GI50 (CCRF-CEM leukemia): 4.94 µM | TGI (CCRF-CEM leukemia): 25.7 µM | GI50 (SK-MEL-2 melanoma): 17.2 µM | TGI (SK-MEL-2 melanoma): 31.8 µM | GI50 (SW-620 colon): 14.5 µM | TGI (SW-620 colon): 28.9 µM | GI50 (T-47D breast): 15.8 µM | TGI (T-47D breast): 33.3 µM | GI50 (HS 578T breast): 14.8 µM | TGI (HS 578T breast): 50.2 µM | GI50 (MALME-3M melanoma): 12.6 µM | TGI (MALME-3M melanoma): 25.6 µM | GI50 (NCI-H460 lung): 18 µM | TGI (NCI-H460 lung): 36.7 µM | GI50 (SK-MEL-5 melanoma): 16.1 µM | TGI (SK-MEL-5 melanoma): 29.6 µM | GI50 (U251 CNS): 14.8 µM | TGI (U251 CNS): 30.6 µM | GI50 (HCC-2998 colon): 16.5 µM | TGI (HCC-2998 colon): 30.5 µM | GI50 (MDA-MB-231 breast): 13.9 µM | TGI (MDA-MB-231 breast): 27.5 µM | GI50 (UO-31 renal): 15.2 µM | TGI (UO-31 renal): 29.7 µM | GI50 (UACC-257 melanoma): 14.7 µM | TGI (UACC-257 melanoma): 29.1 µM | GI50 (SK-OV-3 ovarian): 17.6 µM | TGI (SK-OV-3 ovarian): 32 µM | GI50 (SNB-19 CNS): 17 µM | TGI (SNB-19 CNS): 31.7 µM | GI50 (SK-MEL-28 melanoma): 13.9 µM | TGI (SK-MEL-28 melanoma): 29 µM | GI50 (SR leukemia): 1890 nM | TGI (SR leukemia): 5.3 µM | GI50 (HT29 colon): 13.3 µM | TGI (HT29 colon): 28.8 µM | GI50 (RPMI-8226 leukemia): 11.4 µM | TGI (RPMI-8226 leukemia): 35.9 µM | GI50 (OVCAR-5 ovarian): 15.3 µM | TGI (OVCAR-5 ovarian): 31 µM | GI50 (HOP-92 NSCLC): 10.4 µM | TGI (HOP-92 NSCLC): 23.3 µM | GI50 (A498 renal): 17.6 µM | TGI (A498 renal): 32 µM | GI50 (IGROV1 ovarian): 17.2 µM | TGI (IGROV1 ovarian): 32 µM | GI50 (MDA-MB-468 breast): 8.88 µM | TGI (MDA-MB-468 breast): 21.6 µM | GI50 (RXF 393 renal): 12.5 µM | TGI (RXF 393 renal): 26.1 µM | GI50 (K-562 leukemia): 1180 nM | TGI (K-562 leukemia): 4.54 µM | GI50 (SF-539 CNS): 11.3 µM | TGI (SF-539 CNS): 24 µM | GI50 (MCF7 breast): 9.83 µM | TGI (MCF7 breast): 24.7 µM | GI50 (MDA-MB-435): 10.4 µM | TGI (MDA-MB-435): 22.1 µM | GI50 (LOX IMVI melanoma): 12.1 µM | TGI (LOX IMVI melanoma): 25 µM | GI50 (SN12C renal): 17.3 µM | TGI (SN12C renal): 31.7 µM | GI50 (COLO 205 colon): 18.5 µM | TGI (COLO 205 colon): 33.3 µM | GI50 (HCT-15 colon): 16.4 µM | TGI (HCT-15 colon): 33.9 µM | GI50 (NCI-H522 lung): 17 µM | TGI (NCI-H522 lung): 32 µM | GI50 (NCI-H226 lung): 13.8 µM | TGI (NCI-H226 lung): 28.9 µM
